These molecules were tested against T1, 11β-HSD1 (Homo sapiens, UniProt P28845) (assay: In vitro inhibition of 11β-HSD1, HTRF detection of cortisol generated from cortisone by human liver microsomes). Conditions: 11β-HSD IC50 (nM), 1 hour at 37° C., pH 6.0, NADPH 200 μM, cortisone 80 nM, inhibition relative to carbenoxolone signal.
T1 construct: detecting cortisol generated from cortisterone by human liver microsomes; from tissue; host or cells: human liver microsomes
T1 sequence (P28845 whole entry): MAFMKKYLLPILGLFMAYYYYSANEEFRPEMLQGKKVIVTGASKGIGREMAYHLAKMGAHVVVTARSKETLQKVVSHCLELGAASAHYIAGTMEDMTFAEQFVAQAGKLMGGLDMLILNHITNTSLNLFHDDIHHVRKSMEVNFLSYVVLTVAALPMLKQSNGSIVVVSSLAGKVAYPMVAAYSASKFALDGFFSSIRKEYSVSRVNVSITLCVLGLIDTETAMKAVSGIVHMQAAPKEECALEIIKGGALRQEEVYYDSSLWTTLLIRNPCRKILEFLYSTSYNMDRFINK
Type: biochemical
Description: Cortisol generated in the reaction is then detected with a competitive immunoassay, involving two HTRF conjugates: cortisol linked to XL665 and anti-cortisol antibody labeled with Europium cryptate. The incubation period for detection reaction was typically 2 hours. […] The ratio of the two emission signals is then calculated (Em665*10000/Em615). […] Each assay also contained a calibration curve with cortisol to transform the fluorescent data into cortisol concentrations. Percent inhibition of each compound was determined relative to the carbenoxolone signal and IC50 curves were generated.
Molecule `CC(=O)Nc1ccc(C(=O)N2CC[C@@]3(C)c4cccc(O)c4C[C@@H]2C3(C)C)cc1F` [Example 27, N-{2-Fluoro-4-[(2R,6S)-10-hydroxy-6,11,11-trimethyl-1,2,5,6-tetrahydro-4H-2,6-methano-benzo[d]azocine-3-carbonyl]-phenyl}-acetamide] has an IC50 of 629 nM. `CC(=O)c1ccc(C(=O)N2CC[C@@]3(C)c4cccc(O)c4C[C@@H]2C3(C)C)cc1` [Example 28, 1-{4-[(2R,6S)-10-Hydroxy-6,11,11-trimethyl-1,2,5,6-tetrahydro-4H-2,6-methano-benzo[d]azocine-3-carbonyl]-phenyl}-ethanone] showed an IC50 of 3680 nM. Molecule `Cn1c(=O)[nH]c2cc(C(=O)N3CC[C@@]4(C)c5cccc(O)c5C[C@@H]3C4(C)C)ccc21` [Example 29, 5-[(2R,6S)-10-Hydroxy-6,11,11-trimethyl-1,2,5,6-tetrahydro-4H-2,6-methano-benzo[d]azocine-3-carbonyl]-1-methyl-1,3-dihydro-benzoimidazol-2-one] has an IC50 of 1730 nM. `COC(=O)c1cccc(C(=O)N2CC[C@@]3(C)c4cccc(O)c4C[C@@H]2C3(C)C)c1` [Example 30, 3-[(2R,6S)-10-Hydroxy-6,11,11-trimethyl-1,2,5,6-tetrahydro-4H-2,6-methano-benzo[d]azocine-3-carbonyl]-benzoic acid methyl ester] showed an IC50 of 1400 nM. `CC1(C)[C@H]2Cc3c(O)cccc3[C@]1(C)CCN2C(=O)c1ccc2cc[nH]c2c1` [Example 31, [(2R,6S)-10-Hydroxy-6,11,11-trimethyl-1,2,5,6-tetrahydro-4H-2,6-methano-benzo[d]azocin-3-yl]-(1H-indol-6-yl)-methanone] showed an IC50 of 88 nM. Work on `C#Cc1cc(C(=O)N2CC[C@@]3(C)c4cccc(O)c4C[C@@H]2C3(C)C)ccc1C(=O)N1CCCC1` [Example 32, [3-Ethynyl-4-(pyrrolidine-1-carbonyl)-phenyl]-[(2R,6S)-10-hydroxy-6,11,11-trimethyl-1,2,5,6-tetrahydro-4H-2,6-methano-benzo[d]azocin-3-yl]-methanone] yielded an IC50 of 915 nM. Molecule `CC1(C)[C@H]2Cc3c(O)cccc3[C@]1(C)CCN2C(=O)c1ccc2c(c1)NC(=O)C2` [Example 33, 6-[(2R,6S)-10-Hydroxy-6,11,11-trimethyl 1,2,5,6-tetrahydro-4H-2,6-methano-benzo[d]azocine-3-carbonyl]-1,3-dihydro-indol-2-one] has an IC50 of 3490 nM. `Cc1nc2cc(C(=O)N3CC[C@@]4(C)c5cccc(O)c5C[C@@H]3C4(C)C)ccc2c(=O)[nH]1` [Example 34, 7-[(2R,6S)-10-Hydroxy-6,11,11-trimethyl-1,2,5,6-tetrahydro-4H-2,6-methano-benzo[d]azocine-3-carbonyl]-2-methyl-3H-quinazolin-4-one] was tested, and the IC50 was 3880 nM. Work on `Cc1cc(C(=O)N2CC[C@@]3(C)c4cccc(O)c4C[C@@H]2C3(C)C)ccc1C(=O)N1CCCC1` [Example 35, [(2R,6S)-10-Hydroxy-6,11,11-trimethyl-1,2,5,6-tetrahydro-4H-2,6-methano-benzo[d]azocin-3-yl]-[3-methyl-4-(pyrrolidine-1-carbonyl)-phenyl]-methanone] yielded an IC50 of 672 nM. With `CNC(=O)c1ccc(C(=O)N2CC[C@@]3(C)c4cccc(O)c4C[C@@H]2C3(C)C)cc1` [Example 36, 4-[(2R,6S)-10-Hydroxy-6,11,11-trimethyl-1,2,5,6-tetrahydro-4H-2,6-methano-benzo[d]azocine-3-carbonyl]-N-methyl-benzamide] the IC50 was 3660 nM. In the case of `CN(C)C(=O)c1ccc(C(=O)N2CC[C@@]3(C)c4cccc(O)c4C[C@@H]2C3(C)C)cc1` [Example 37, 4-[(2R,6S)-10-Hydroxy-6,11,11-trimethyl-1,2,5,6-tetrahydro-4H-2,6-methano-benzo[d]azocine-3-carbonyl]-N,N-dimethyl-benzamide], the IC50 is reported as 998 nM. In the case of `CN(C)C(=O)c1cccc(C(=O)N2CC[C@@]3(C)c4cccc(O)c4C[C@@H]2C3(C)C)c1` [Example 38, 3-[(2R,6S)-10-Hydroxy-6,11,11-trimethyl-1,2,5,6-tetrahydro-4H-2,6-methano-benzo[d]azocine-3-carbonyl]-N,N-dimethyl-benzamide], the IC50 is reported as 1440 nM.

From patent US8859580B2 (Boehringer Ingelheim International GmbH, priority 2007, dated 2014)
